ChEMBL document CHEMBL1201862, “PubChem BioAssay data set” (2004)
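Compound exposure: 48 hours, 5 concentrations, 96-well plates. Abbreviation: GI50, concentration required for 50% inhibition of growth.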 Active and inactive are the calls of the source. Rule as the data show it: active = GI50 up to about 1.1 µM and inactive = higher.

Tests used:
Assay in all cases: DTP human tumour cell line panel, 48 h
[1] = test system: OVCAR-8
[2] = test system: DMS-273
[3] = test system: RXF 393
[4] = test system: HL-60
[5] = test system: HT-29
[6] = test system: SK-MEL-5
[7] = test system: A549
[8] = test system: MOLT-4
[9] = test system: RPMI-8226
[10] = test system: HCT-15
[11] = test system: DLD-1
[12] = test system: SF-268
[13] = test system: SNB-78
[14] = test system: EKVX
[15] = test system: OVCAR-5
[16] = test system: HOP-62
[17] = test system: OVCAR-3
[18] = test system: LOX IMVI
[19] = test system: M19-MEL
[20] = test system: UACC-257
[21] = test system: SK-MEL-2
[22] = test system: 786-0
[23] = test system: UO-31
[24] = test system: KM-20L2
[25] = test system: UACC-62
[26] = test system: NCI-H226
[27] = test system: SR
[28] = test system: SK-MEL-28
[29] = test system: U-251
[30] = test system: RXF 631
[31] = test system: COLO 205
[32] = test system: TK-10
[33] = test system: HOP-18
[34] = test system: K562
[35] = test system: ACHN
[36] = test system: IGROV-1
[37] = test system: OVCAR-4
[38] = test system: NCI-H522
[39] = test system: HCT-116
[40] = test system: CCRF-CEM
[41] = test system: NCI-H23
[42] = test system: KM12
[43] = test system: SK-OV-3
[44] = test system: A498
[45] = test system: LXFL 529
[46] = test system: HCC 2998
[47] = test system: SN12C
[48] = test system: M14
[49] = test system: SNB-75
[50] = test system: Malme-3M
[51] = test system: NCI-H460
[52] = test system: SF-295
[53] = test system: XF498
[54] = test system: HOP-92
[55] = test system: DMS-114
[56] = test system: SNB-19
[57] = test system: CAKI-1
[58] = test system: SF-539

Measured: GI50

CCOC(=O)CCC1(C(=O)OCC)CCCC1=O (stereo not drawn)
inactive: [1] > 100 µM | [2] 43.2 µM | [3] > 100 µM | [4] > 100 µM | [5] > 100 µM | [6] > 100 µM | [7] > 100 µM | [8] > 100 µM | [9] 34.4 µM | [11] > 100 µM | [12] > 100 µM | [13] > 100 µM | [14] > 100 µM | [15] > 100 µM | [16] > 100 µM | [17] > 100 µM | [18] 47.6 µM | [19] > 100 µM | [20] > 100 µM | [21] > 100 µM | [22] > 100 µM | [23] > 100 µM | [24] > 100 µM | [25] > 100 µM | [26] > 100 µM | [27] 25.4 µM | [28] > 100 µM | [29] > 100 µM | [30] > 100 µM | [31] > 100 µM | [32] > 100 µM | [33] > 100 µM | [34] > 100 µM | [35] > 100 µM | [36] > 100 µM | [37] > 100 µM | [38] > 100 µM | [39] 68.4 µM | [40] > 100 µM | [41] > 100 µM | [42] > 100 µM | [43] > 100 µM | [44] > 100 µM | [45] > 100 µM | [46] > 100 µM | [47] > 100 µM | [48] > 100 µM | [49] > 100 µM | [50] > 100 µM | [51] > 100 µM | [52] > 100 µM | [53] > 100 µM | [54] > 100 µM | [55] > 100 µM | [56] > 100 µM | [57] > 100 µM | [58] > 100 µM
78.3 µM: [10]
